Like-named read-outs stand apart in the source and are kept apart here.
Experiments:
[1] = molecular target: KRAS G12V (Homo sapiens, UniProt P01116+P62937, G12V); assay: Ras-Raf disruption / FRET / MOA assay (BRAF RBD); type: biochemical; details: with Cyclophilin A
Procedure, shortened: (§1)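 TR-FRET in 25 mM HEPES pH 7.3, 100 mM NaCl, 5 mM MgCl2, 0.1% BSA, 0.002% Tween20 with 25 μM Cyclophilin A, 12.5 nM His6-Ras-GMPPNP, 50 nM GST-BRAF RBD; compound 10-point 3-fold series from 30 μM. After 3 h at 25 °C, Eu anti-His/APC anti-GST added for 1.5 h; IC50 from ratio decrease versus DMSO.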

[2] = molecular target: NRAS G12C (Homo sapiens, UniProt P01111+P62937, G12C); assay: Ras-Raf disruption / FRET / MOA assay (BRAF RBD); type: biochemical
NRAS G12C, sequence (P01111 whole entry G12C): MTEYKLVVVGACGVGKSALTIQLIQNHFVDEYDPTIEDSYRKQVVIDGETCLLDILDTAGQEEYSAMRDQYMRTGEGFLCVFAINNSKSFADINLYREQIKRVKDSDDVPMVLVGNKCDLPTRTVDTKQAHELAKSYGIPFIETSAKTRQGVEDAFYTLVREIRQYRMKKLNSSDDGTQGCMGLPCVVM
NRAS G12C, sequence (P62937 whole entry): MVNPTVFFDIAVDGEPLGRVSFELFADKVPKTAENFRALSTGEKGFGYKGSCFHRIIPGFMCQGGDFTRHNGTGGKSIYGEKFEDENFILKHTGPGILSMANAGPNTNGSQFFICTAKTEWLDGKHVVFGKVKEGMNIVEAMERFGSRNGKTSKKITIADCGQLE
Procedure, shortened: as §1

[3] = molecular target: KRAS G12S (Homo sapiens, UniProt P01116+P62937, G12S); assay: Ras-Raf disruption / FRET / MOA assay (BRAF RBD); type: biochemical; details: with Cyclophilin A
KRAS G12S, sequence (P01116 1-169 isoform P01116-2 G12S limits assumed): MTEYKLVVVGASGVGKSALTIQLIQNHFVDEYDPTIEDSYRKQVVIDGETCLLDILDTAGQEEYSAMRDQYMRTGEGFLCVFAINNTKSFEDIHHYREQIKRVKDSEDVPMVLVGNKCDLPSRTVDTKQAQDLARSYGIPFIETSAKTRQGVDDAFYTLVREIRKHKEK
KRAS G12S, sequence (P62937 whole entry): as the sequence (P62937 whole entry) above
Procedure, shortened: as §1

[4] = molecular target: KRAS G13C (Homo sapiens, UniProt P01116+P62937, G13C); assay: Ras-Raf disruption / FRET / MOA assay (BRAF RBD); type: biochemical; details: with Cyclophilin A
KRAS G13C, sequence (P01116 1-169 isoform P01116-2 G13C limits assumed): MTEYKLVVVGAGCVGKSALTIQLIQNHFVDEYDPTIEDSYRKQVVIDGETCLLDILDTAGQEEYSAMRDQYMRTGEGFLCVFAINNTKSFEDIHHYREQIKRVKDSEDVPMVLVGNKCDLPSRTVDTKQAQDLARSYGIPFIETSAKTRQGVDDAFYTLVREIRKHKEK
KRAS G13C, sequence (P62937 whole entry): as the sequence (P62937 whole entry) above
Procedure, shortened: as §1

[5] = molecular target: KRAS G13D (Homo sapiens, UniProt P01116+P62937, G13D); assay: Ras-Raf disruption / FRET / MOA assay (BRAF RBD); type: biochemical; details: with Cyclophilin A
KRAS G13D, sequence (P01116 1-169 isoform P01116-2 G13D limits assumed): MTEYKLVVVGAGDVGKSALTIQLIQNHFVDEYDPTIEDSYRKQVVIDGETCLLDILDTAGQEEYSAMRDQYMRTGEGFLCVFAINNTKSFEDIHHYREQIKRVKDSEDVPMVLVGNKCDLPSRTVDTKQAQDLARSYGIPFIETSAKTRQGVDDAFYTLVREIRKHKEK
KRAS G13D, sequence (P62937 whole entry): as the sequence (P62937 whole entry) above
Procedure, shortened: as §1

[6] = molecular target: KRAS G12D (Homo sapiens, UniProt P01116+P62937, G12D); assay: Ras-Raf disruption / FRET / MOA assay (BRAF RBD); type: biochemical; details: with Cyclophilin A
KRAS G12D, sequence (P01116 1-169 isoform P01116-2 G12D limits assumed): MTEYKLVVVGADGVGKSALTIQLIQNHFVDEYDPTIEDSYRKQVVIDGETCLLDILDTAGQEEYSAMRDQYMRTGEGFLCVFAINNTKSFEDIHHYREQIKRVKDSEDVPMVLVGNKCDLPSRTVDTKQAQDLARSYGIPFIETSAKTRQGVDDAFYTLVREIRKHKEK
KRAS G12D, sequence (P62937 whole entry): as the sequence (P62937 whole entry) above
Procedure, shortened: as §1

[7] = molecular target: KRAS WT (Homo sapiens, UniProt P01116+P62937); assay: Ras-Raf disruption / FRET / MOA assay (BRAF RBD); type: biochemical; details: with Cyclophilin A
KRAS WT, sequence (P01116 1-169 isoform P01116-2 limits assumed): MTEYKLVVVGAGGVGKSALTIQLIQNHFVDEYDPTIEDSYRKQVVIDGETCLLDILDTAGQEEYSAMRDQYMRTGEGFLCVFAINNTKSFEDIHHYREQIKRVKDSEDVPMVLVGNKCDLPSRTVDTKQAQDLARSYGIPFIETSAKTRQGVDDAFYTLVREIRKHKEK
KRAS WT, sequence (P62937 whole entry): as the sequence (P62937 whole entry) above
Procedure, shortened: as §1

[8] = test system: AsPC-1 (K-Ras G12D); assay: CellTiter-Glo cell viability assay; type: cell-based; details: Homo sapiens, ASPC1, 120 h
Procedure, shortened: (§2)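 Luminescence from CellTiter-Glo serves as the viability read-out after cells are treated with compound for 5 days. Each well's signal is divided by the DMSO average and multiplied by 100, and curves are fitted by four-parameter logistic regression.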

[9] = test system: NCI-H358 (K-Ras G12C); assay: CellTiter-Glo cell viability assay; type: cell-based; details: Homo sapiens, NCI-H358, 120 h
Procedure, shortened: as §2

[10] = test system: AsPC-1 (K-Ras G12D); assay: Potency assay: pERK; type: cell-based; details: Homo sapiens
[11] = molecular target: KRAS G12C (Homo sapiens, UniProt P01116+P62937, G12C); assay: Ras-Raf disruption / FRET / MOA assay (BRAF RBD); type: biochemical; details: with Cyclophilin A
KRAS G12C, sequence (P01116 1-169 isoform P01116-2 G12C limits assumed): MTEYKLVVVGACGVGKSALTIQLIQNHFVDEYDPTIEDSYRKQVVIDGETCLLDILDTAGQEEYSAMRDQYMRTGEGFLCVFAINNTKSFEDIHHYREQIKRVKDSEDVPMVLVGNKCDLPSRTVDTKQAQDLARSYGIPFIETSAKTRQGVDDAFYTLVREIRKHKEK
KRAS G12C, sequence (P62937 whole entry): as the sequence (P62937 whole entry) above
Procedure, shortened: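 His6-K-Ras G12C-GMPPNP (12.5 nM), GST-BRAF RBD (50 nM) and tagless Cyclophilin A (25 μM) incubated 3 h at 25 °C with compound (10-point 3-fold series from 30 μM), pH 7.3 HEPES buffer. Anti-His Eu/anti-GST APC added for 1.5 h; decreased TR-FRET ratio vs DMSO gives IC50.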

[12] = KRAS G12V FRET data IC50, Ras-Raf disruption
[13] = NRAS G12C FRET data IC50, NRAS G12C
[14] = KRAS G12S FRET data IC50, Ras-Raf disruption
[15] = KRAS G13C FRET data IC50, Ras-Raf disruption
[16] = KRAS G13D FRET data IC50, Ras-Raf disruption
[17] = KRAS G12D FRET data IC50, Ras-Raf disruption
[18] = KRAS WT FRET data IC50, Ras-Raf disruption
[19] = read-out: AsPC-1 Cell Viability assay data IC50, K-Ras G12D, 5-day treatment
[20] = read-out: H358 Cell Viability assay data IC50, K-Ras G12C, 5-day treatment
[21] = KRAS G12C FRET data IC50, Ras-Raf disruption
[22] = Ras-Raf disruption, read-out: KRAS G12V FRET data IC50
[23] = NRAS G12C, read-out: NRAS G12C FRET data IC50
[24] = Ras-Raf disruption, read-out: KRAS G12S FRET data IC50
[25] = Ras-Raf disruption, read-out: KRAS G13C FRET data IC50
[26] = Ras-Raf disruption, read-out: KRAS G13D FRET data IC50
[27] = Ras-Raf disruption, read-out: KRAS G12D FRET data IC50
[28] = Ras-Raf disruption, read-out: KRAS WT FRET data IC50
[29] = K-Ras G12D, 5-day treatment, read-out: AsPC-1 Cell Viability assay data IC50
[30] = K-Ras G12C, 5-day treatment, read-out: H358 Cell Viability assay data IC50
[31] = ASPC1, AsPC-1 KRAS G12D, read-out: pERK EC50
[32] = Ras-Raf disruption, read-out: KRAS G12C FRET data IC50

KRAS G12V, sequence (P01116 1-169 isoform P01116-2 G12V limits assumed): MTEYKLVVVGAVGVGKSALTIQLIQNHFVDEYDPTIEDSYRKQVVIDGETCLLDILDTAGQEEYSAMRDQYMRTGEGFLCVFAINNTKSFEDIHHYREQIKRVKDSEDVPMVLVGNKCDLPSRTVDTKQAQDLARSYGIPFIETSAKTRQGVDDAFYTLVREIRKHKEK
KRAS G12V, sequence (P62937 whole entry): as the sequence (P62937 whole entry) above

Row | SMILES | IC50 [1, 12] [nM] | IC50 [2, 13] [nM] | IC50 [3, 14] [nM] | IC50 [4, 15] [nM] | IC50 [5, 16] [nM] | IC50 [6, 17] [nM] | IC50 [7, 18] [nM] | IC50 [8, 19] [nM] | IC50 [9, 20] [nM] | EC50 ([10]; ASPC1, read-out: pERK EC50) [µM] | IC50 [11, 21] [nM] | other results
1 | CCn1c(-c2cnccc2COC)c2c3cc(ccc31)-c1cc(O)cc(c1)C[C@H](NC(=O)[C@H](C(C)C)N(C)C(=O)CN(C)C(=O)[C@@H]1N[C@@H]1C(=O)OC)C(=O)N1CCC[C@H](N1)C(=O)OCC(C)(C)C2 [Example 49] | 100 to 1000 | 10 to 100 | 100 to 1000 | 10 to 100 | 100 to 1000 | 100 to 1000 | 100 to 1000 | 1000 to 10000 | 1000 to 10000 | < 5 | 10 to 100 | –
2 | CCn1c(-c2cccnc2[C@H](C)OC)c2c3cc(ccc31)-c1cc(O)cc(c1)C[C@H](NC(=O)[C@H](C1CCCC1)N(C)C(=O)[C@H]1CCN(C[C@H]3CN3)C1=O)C(=O)N1CCC[C@H](N1)C(=O)OCC(C)(C)C2 [Example 58] | – | – | – | – | – | – | – | – | – | – | – | IC50 [1, 22]: 10 to 100 nM; IC50 [2, 23]: < 10 nM; IC50 [3, 24]: 10 to 100 nM; IC50 [4, 25]: 10 to 100 nM; IC50 [5, 26]: 10 to 100 nM; IC50 [6, 27]: 100 to 1000 nM; IC50 [7, 28]: 10 to 100 nM; IC50 [8, 29]: 100 to 1000 nM; IC50 [9, 30]: < 10 nM; EC50 [10, 31]: < 5 µM; IC50 [11, 32]: < 10 nM
3 | CCn1c(-c2cccnc2[C@H](C)OC)c2c3cc(ccc31)-c1cc(O)cc(c1)C[C@H](NC(=O)[C@H](C(C)C)N(C)C(=O)CN(C)C(=O)[C@@H]1N[C@H]1COC)C(=O)N1CCC[C@H](N1)C(=O)OCC(C)(C)C2 [Example 85] | 10 to 100 | 10 to 100 | 10 to 100 | < 10 | 10 to 100 | 100 to 1000 | 10 to 100 | 1000 to 10000 | 10 to 100 | < 5 | 10 to 100 | –
4 | CCn1c(-c2cccnc2[C@H](C)OC)c2c3cc(ccc31)-c1cc(O)cc(c1)C[C@H](NC(=O)[C@H](C(C)C)N(C)C(=O)CN(C)C(=O)C1CN1CCOC)C(=O)N1CCC[C@H](N1)C(=O)OCC(C)(C)C2 (some centres unmarked) [Example 90] | 10 to 100 | < 10 | 10 to 100 | 10 to 100 | 100 to 1000 | 100 to 1000 | 10 to 100 | 100 to 1000 | < 10 | < 5 | < 10 | –
5 | CCn1c(-c2cccnc2[C@H](C)OC)c2c3cc(ccc31)-c1cc(O)cc(c1)C[C@H](NC(=O)[C@H](C1CCCC1)N(C)C(=O)CN(C)C(=O)[C@H]1CN1)C(=O)N1CCC[C@H](N1)C(=O)OCC(C)(C)C2 [Example 95] | 10 to 100 | < 10 | 10 to 100 | 10 to 100 | 10 to 100 | 10 to 100 | 10 to 100 | 10 to 100 | < 10 | < 5 | < 10 | –
6 | CCn1c(-c2cccnc2[C@H](C)OC)c2c3cc(ccc31)-c1cc(O)cc(c1)C[C@H](NC(=O)[C@H](C(C)C)N(C)C(=O)[C@H](C)N(C)C(=O)[C@H]1CN1)C(=O)N1CCC[C@H](N1)C(=O)OCC(C)(C)C2 [Example 102] | 100 to 1000 | 10 to 100 | 100 to 1000 | 10 to 100 | 100 to 1000 | 100 to 1000 | 10 to 100 | 100 to 1000 | 10 to 100 | < 5 | 10 to 100 | –
7 | CCn1c(-c2cccnc2[C@H](C)OC)c2c3cc(ccc31)-c1cccc(c1)C[C@H](NC(=O)[C@H](C(C)C)N(C)C(=O)[C@H]1CCN(C(=O)[C@H]3CN3)C1)C(=O)N1CCC[C@H](N1)C(=O)OCC(C)(C)C2 [Example 106] | – | – | – | – | – | – | – | – | – | – | – | IC50 [1, 22]: 1000 to 10000 nM; IC50 [2, 23]: 10 to 100 nM; IC50 [3, 24]: 1000 to 10000 nM; IC50 [4, 25]: 100 to 1000 nM; IC50 [5, 26]: 1000 to 10000 nM; IC50 [6, 27]: 1000 to 10000 nM; IC50 [7, 28]: 1000 to 10000 nM; IC50 [8, 29]: 1000 to 10000 nM; IC50 [9, 30]: < 10 nM; EC50 [10, 31]: < 5 µM; IC50 [11, 32]: 10 to 100 nM
8 | CCn1c(-c2cccnc2[C@H](C)OC)c2c3cc(ccc31)-c1cccc(c1)C[C@H](NC(=O)[C@H](C(C)C)N(C)C(=O)CN(C)C(=O)[C@H]1CN1)C(=O)N1CCC[C@H](N1)C(=O)OCC(C)(C)C2 [Example 107] | 1000 to 10000 | 100 to 1000 | 1000 to 10000 | 100 to 1000 | 1000 to 10000 | 1000 to 10000 | 1000 to 10000 | 1000 to 10000 | 100 to 1000 | < 5 | 100 to 1000 | –
9 | CCn1c(-c2cccnc2[C@H](C)OC)c2c3cc(ccc31)-c1cc(O)cc(c1)C[C@H](NC(=O)[C@H](C(C)C)N(C)C(=O)CN(C)C(=O)[C@@H]1N[C@@H]1C1CC1)C(=O)N1CCC[C@H](N1)C(=O)OCC(C)(C)C2 [Example 133] | 10 to 100 | 10 to 100 | 10 to 100 | 10 to 100 | 10 to 100 | 10 to 100 | 10 to 100 | 10 to 100 | 10 to 100 | < 5 | 10 to 100 | –
10 | CCn1c(-c2cccnc2[C@H](C)OC)c2c3cc(ccc31)-c1cc(O)cc(c1)C[C@H](NC(=O)[C@H](C(C)C)N(C)C(=O)CN(C)C(=O)[C@@H]1CN1CCCOC)C(=O)N1CCC[C@H](N1)C(=O)OCC(C)(C)C2 (some centres unmarked) [Example 137] | 10 to 100 | < 10 | 10 to 100 | 10 to 100 | 10 to 100 | 10 to 100 | 10 to 100 | 100 to 1000 | < 10 | < 5 | < 10 | –
11 | CCn1c(-c2cccnc2[C@H](C)OC)c2c3cc(ccc31)-c1cc(O)cc(c1)C[C@H](NC(=O)[C@H](C(C)C)N(C)C(=O)CN(C)C(=O)[C@H]1CN1C(C)C)C(=O)N1CCC[C@H](N1)C(=O)OCC(C)(C)C2 (some centres unmarked) [Example 142] | 100 to 1000 | < 10 | 10 to 100 | 10 to 100 | 100 to 1000 | 100 to 1000 | 100 to 1000 | 100 to 1000 | < 10 | < 5 | < 10 | –
12 | CCn1c(-c2cccnc2[C@H](C)OC)c2c3cc(ccc31)-c1cc(O)cc(c1)C[C@H](NC(=O)[C@H](C(C)C)N(C)C(=O)CN(C)C(=O)[C@@H]1CN1C(C)C)C(=O)N1CCC[C@H](N1)C(=O)OCC(C)(C)C2 (some centres unmarked) [Example 148] | 10 to 100 | < 10 | 10 to 100 | 10 to 100 | 10 to 100 | 10 to 100 | 10 to 100 | 100 to 1000 | < 10 | < 5 | < 10 | –
13 | CCn1c(-c2cccnc2[C@H](C)OC)c2c3cc(ccc31)-c1cc(O)cc(c1)C[C@H](NC(=O)[C@H](C(C)C)N(C)C(=O)CN(C)C(=O)[C@H]1CN1Cc1ccccc1F)C(=O)N1CCC[C@H](N1)C(=O)OCC(C)(C)C2 (some centres unmarked) [Example 155] | 10 to 100 | < 10 | 10 to 100 | 10 to 100 | 100 to 1000 | 100 to 1000 | 10 to 100 | 100 to 1000 | < 10 | < 5 | 10 to 100 | –

From patent US20230233569A1 (Revolution Medicines, Inc., priority 2020, published 2023)
